Target: phosphoinositide-specific phospholipase C (Bos taurus)
Experiment: In vitro inhibitory activity against bovine Phosphoinositide specific phospholipase C (PI-PLC)

`CCCCCCCCCCCCCCCC(=O)OC[C@H](COP(=O)(O)OC1C(O)C(O)C(O)C(F)C1O)OC(=O)CCCCCCCCCCCCCCC` (stereo partly drawn) [Hexadecanoic acid (R)-2-[(3-fluoro-2,4,5,6-tetrahydroxy-cyclohexyloxy)-hydroxy-phosphoryloxy]-1-hexadecanoyloxymethyl-ethyl ester] was tested, and the IC50 was 8 µM.

— BindingDB's records for doi:10.1021/jm980254j (Georgetown University Medical Center, 1998)
